Some test systems named below: MOLT-4; SN12C; T47D; NCI-H460; HCT-15; ACHN; A549; PC-3; NCI/ADR-RES; SK-MEL-28; SNB-19; SF-268; HL-60; NCI-H226; SNB-75; HOP-62; UO-31; OVCAR-3; SF-539; RXF 393.
Experiment in all cases: growth of human tumour cells (NCI), 48 h

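Results reflect a 48-hour exposure of cells in 96-well plates to compound at five concentrations. The concentration for 50% growth inhibition is given as GI50.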 Activity calls are given as the source filed them. Cut-off read from the data, not from the text of the source: active = GI50 up to about 1.1 µM and inactive = higher.

For the compound `COc1ccc(C2Oc3c(cccc3-c3c(-c4ccc(O)cc4)oc4cc(O)cc(O)c4c3=O)C(=O)C2O)cc1O` (configuration not stated), the GI50 with MOLT-4 was > 100 µM (inactive); with SN12C, > 100 µM (inactive); in the assay with T47D, > 100 µM (inactive); with NCI-H460 it was > 100 µM (inactive); with HCT-15, above 100 µM; in the assay with ACHN, > 100 µM (inactive). The GI50 with A549, with PC-3, in the assay with NCI/ADR-RES, in the assay on SK-MEL-28, in the assay on SNB-19 and in the assay with SF-268 was > 100 µM (inactive) each time. Also, the GI50 is > 100 µM (inactive) with HL-60; > 100 µM (inactive) with NCI-H226; 60.4 µM (inactive) in the assay with SNB-75; > 100 µM (inactive) in the assay on HOP-62; > 100 µM (inactive) with UO-31; > 100 µM (inactive) in the assay on OVCAR-3.
Consider `CCn1c(-c2ccccc2)nc2c1C(=O)c1ccccc1C2=O`, for which the GI50 was 14.7 µM (inactive) in the assay with MOLT-4; 20.7 µM (inactive) in the assay with SN12C; 2.22 µM (inactive) with T47D; 20 µM (inactive) in the assay on NCI-H460; 17.1 µM with HCT-15; 28.4 µM (inactive) with A549. In addition, the GI50 was 10.2 µM (inactive) with PC-3; 13.3 µM (inactive) in the assay with NCI/ADR-RES; 56 µM (inactive) in the assay with SK-MEL-28; 32.4 µM (inactive) in the assay on SF-539; 32.8 µM (inactive) in the assay on SNB-19; 18 µM (inactive) in the assay with HL-60. The GI50 is 15.6 µM (inactive) in the assay on RXF 393, 24.4 µM (inactive) with NCI-H226, 42.5 µM (inactive) with HOP-62 and 5.89 µM (inactive) in the assay on OVCAR-3.
As for `Cc1ccc2nc(Cl)c(/C=N/N3C(=O)/C(=C/c4cccc([N+](=O)[O-])c4)N=C3c3ccccc3)cc2c1`, the GI50 in the assay with MOLT-4 is 29.2 µM (inactive); with SN12C it was 35.7 µM (inactive); in the assay on T47D, 59.8 µM (inactive); with NCI-H460 it was 34.4 µM (inactive); in the assay with HCT-15 it was 42.2 µM; with ACHN it was 49.1 µM (inactive). Moreover, the GI50 in the assay with A549 was 60.1 µM (inactive); in the assay on PC-3, 25.4 µM (inactive); in the assay on NCI/ADR-RES, 36.5 µM (inactive); in the assay with SK-MEL-28, > 100 µM (inactive); in the assay with SF-539 it was > 100 µM (inactive); in the assay with SNB-19, > 100 µM (inactive). Also, the GI50 with SF-268 was 97.1 µM (inactive); in the assay on HL-60, 39.2 µM (inactive); with SNB-75, 59.6 µM (inactive); in the assay on HOP-62, 50.2 µM (inactive); with UO-31 it was 38 µM (inactive); with OVCAR-3 it was 30.5 µM (inactive).
In the case of `CCO/C(=N/S(=O)(=O)C(F)(F)F)N(C(C)C)C(C)C`, the GI50 in the assay with MOLT-4 is > 100 µM (inactive); with SN12C it was > 100 µM (inactive); in the assay with T47D it was > 100 µM (inactive); with NCI-H460 it was > 100 µM (inactive); in the assay with HCT-15 it was above 100 µM; in the assay on ACHN, > 100 µM (inactive). Besides, the GI50 in the assay with A549 was > 100 µM (inactive); with PC-3 it was > 100 µM (inactive); with NCI/ADR-RES it was > 100 µM (inactive); in the assay on SK-MEL-28, > 100 µM (inactive); in the assay on SF-539, 47 µM (inactive); with SNB-19, > 100 µM (inactive). For the same compound, the GI50 in the assay on SF-268, in the assay with HL-60 and in the assay with RXF 393 was > 100 µM (inactive) in each case.

Source of the values: ChEMBL document CHEMBL1201862, “PubChem BioAssay data set” (2004).
